Assay [1] has as its system HSP90 client protein Her2 in SKBR-3 cells. The assay can be described thus: Her-2 degradation assay (Her-2 ELISA) in SKBr-3 cells. The assay is classed as cell-based. The conditions noted are these: Homo sapiens. Here is the method: (§1) Most of the compounds synthesized were evaluated for their ability to induce degradation of the HSP90 client protein Her2 in SKBR-3 cells. Selected compounds were evaluated in a fluorescence polarization (FP) assay for their affinity to HSP90.
SKBr-3 cells grown in McCoy's 5a Medium supplemented with 10% fetal bovine serum (FBS) were plated into 12-well plates at 50% confluency. Increasing concentrations of inhibitors were added 24 hours later (cells are 65-70% confluent) and incubated overnight for 18 hours. The wells were washed with 2 ml of phosphate buffered saline (PBS), and 50 ul of trypsin was added to each well. After trypsinization was complete, 150 ul of FBS was added to each well. Then 200 ul of cells were transferred to 96-well plates and plates were centrifuged at 1200 rpm for 2 minutes using a tabletop centrifuge. The cells were washed once with 250 ul PBS before being lysed with 100 ul of 50 mM Tris (pH 7.4), 0.1% NP-40 lysis buffer. Protein concentrations of clarified lysates were determined using the BCA Assay (Calbiochem) according to the manufacturer's instructions. 2 ug of each lysate was analyzed in the human sp 185 Her-2 ELISA (Bender Medsystems) according to the manufacturer's instructions. ELISA plates were read at 450 nm using a multiwell plate spectrophotometer. Background was determined by measuring the Abs 450 nm of wells with no lysate added. The background value was subtracted from all values. Absorbance 450 nm values for each inhibitor were plotted against the log 10 inhibitor concentration, and IC50 values were calculated using a nonlinear least-square curve fitting program in Prism 5.

In the next assay the test system is HSP90. The assay can be described thus: Fluorescence polarization (FP) assay for affinity to HSP90. The conditions noted are these: Table 2; means of three independent experiments. Format: binding. Here is the method:
as §1
In general terms: Fluorescence polarisation rises when a labelled molecule tumbles more slowly, as on binding a larger partner.

In the next assay the test system is HT29. The assay can be described thus: MTS assay (cytotoxicity), growth inhibition of HT29. Format: cell-based. The conditions noted are these: Homo sapiens, HT-29, 120 h, Table 5, series III, 5 days, read-out: Growth Inhibition (IC50) HT29. Here is the method: (§2) Cells were seeded in 96-well plates at 2000 cells/well in a final culture volume of 100 ul for 24 hours before the addition of 25 ul of increasing concentrations of inhibitors that was incubated for 5 days. Viable cell number was determined using the CellTiter 96 AQueous One Solution Cell Proliferation Assay (Promega). Plates were read at 490 nm absorbance 2-4 hours after addition of the MTS reagent using a multiwell plate spectrophotometer. Background was determined by measuring the Abs 490 nm of cell culture medium and MTS in the absence of cells. The background value was subtracted from all values. Absorbance 490 nm values for each inhibitor were plotted against the log 10 inhibitor concentration, and IC50 values were calculated using a nonlinear least-square curve fitting program in Prism 5.
(In general: Formazan colour is commonly taken as a measure of viable cells.)

Another assay deals with SKBR-3. Kind of assay: MTS assay (cytotoxicity), growth inhibition of SKBR-3. Format: cell-based. The conditions noted are these: Homo sapiens, SK-BR-3, 120 h, Table 5, series III, 5 days, read-out: Growth Inhibition (IC50) SKBR-3. Here is the method: as §2
The test system of the next assay is MCF-7. Kind of assay: MTS assay (cytotoxicity), growth inhibition of MCF-7. The assay is classed as cell-based. The conditions noted are these: Homo sapiens, MCF7, 120 h, Table 5, series III, 5 days, read-out: Growth Inhibition (IC50) MCF-7. As for the experimental part: as §2
For another assay, the system named is BT474. Kind of assay: MTS assay (cytotoxicity), growth inhibition of BT474. Format: cell-based. The conditions noted are these: Homo sapiens, BT-474, 120 h, Table 5, series III, 5 days, read-out: Growth Inhibition (IC50) BT474. As for the experimental part: as §2
[2] abbreviates: SK-BR-3, Table 2, 18 hours, means of three independent experiments.
The mark [3] stands for this setting: SK-BR-3, Table 5, series III, 18 hours.

For orientation: IC50 means the concentration needed to halve the response being measured.

On to `COc1c(C)cnc(CN2c3nc(N)nc(Cl)c3NC(=O)[C@@H]2CCO)c1C` [Example I-25], for which the IC50 in assay [1] (setting [2]) stood at 280 nM; in the assay on HSP90, 640 nM.

With `COc1c(C)cnc(CN2c3nc(N)nc(Cl)c3N(C(C)C)C(=O)[C@@H]2C(C)C)c1C` [Example I-32], the figures for the IC50 (in assay [1] (setting [2]); in the assay with HSP90) were 60 nM and 80 nM, respectively.

For `COc1c(C)cnc(CN2C(=O)/C(=C\c3cc(C(=O)NCC(O)CO)c[nH]3)c3c(Cl)nc(N)nc32)c1C` (stereo not shown) [III-22, (Z)-5-((2-Amino-4-chloro-7-((4-methoxy-3,5-dimethylpyridin-2-yl)methyl)-6-oxo-6,7-dihydro-5H-pyrrolo[2,3-d]pyrimidin-5-ylidene)methyl)-N-(2,3-dihydroxypropyl)-1H-pyrrole-3-carboxamide], the IC50 stood at 80 nM in assay [1] (setting [3]); 360 nM with HT29; 80 nM with SKBR-3; 400 nM with MCF-7; 110 nM in the assay on BT474.

With `COc1c(C)cnc(CN2C(=O)/C(=C\c3cc(C(=O)NCCN4CCCC4)c[nH]3)c3c(Cl)nc(N)nc32)c1C` [III-26, (Z)-5-((2-Amino-4-chloro-7-((4-methoxy-3,5-dimethylpyridin-2-yl)methyl)-6-oxo-6,7-dihydro-5H-pyrrolo[2,3-d]pyrimidin-5-ylidene)methyl)-N-(2-(pyrrolidin-1-yl)ethyl)-1H-pyrrole-3-carboxamide], the IC50 was 5 nM in assay [1] (setting [3]); 0.6 nM with HT29; below 0.2 nM with SKBR-3; 30 nM in the assay on MCF-7; 1 nM in the assay on BT474.

On to `COc1c(C)cnc(CN2C(=O)/C(=C\c3cc(C(=O)N(CCO)CCO)c[nH]3)c3c(Cl)nc(N)nc32)c1C` [III-27, (Z)-5-((2-Amino-4-chloro-7-((4-methoxy-3,5-dimethylpyridin-2-yl)methyl)-6-oxo-6,7-dihydro-5H-pyrrolo[2,3-d]pyrimidin-5-ylidene)methyl)-N,N-bis(2-hydroxyethyl)-1H-pyrrole-3-carboxamide], for which the IC50 in assay [1] (setting [3]) was determined as 130 nM; with HT29 it was 130 nM; in the assay on SKBR-3, 50 nM; with MCF-7, 330 nM; in the assay on BT474 it was 80 nM.

Regarding `COc1c(C)cnc(CN2C(=O)/C(=C\c3cc(C(=O)NCCCN4CCCC4)c[nH]3)c3c(Cl)nc(N)nc32)c1C` [III-28, (Z)-5-((2-Amino-4-chloro-7-((4-methoxy-3,5-dimethylpyridin-2-yl)methyl)-6-oxo-6,7-dihydro-5H-pyrrolo[2,3-d]pyrimidin-5-ylidene)methyl)-N-(3-(pyrrolidin-1-yl)propyl)-1H-pyrrole-3-carboxamide], the concentration for half-maximal inhibition (IC50) in assay [1] (setting [3]) is 110 nM; in the assay with HT29, 50 nM; in the assay with SKBR-3, 40 nM; in the assay with MCF-7, 890 nM; in the assay on BT474 it was 20 nM.

In the case of `COc1c(C)cnc(CN2C(=O)/C(=C\c3cc(C(=O)NCCN(CCO)CCO)c[nH]3)c3c(Cl)nc(N)nc32)c1C` [III-30, (Z)-5-((2-Amino-4-chloro-7-((4-methoxy-3,5-dimethylpyridin-2-yl)methyl)-6-oxo-6,7-dihydro-5H-pyrrolo[2,3-d]pyrimidin-5-ylidene)methyl)-N-(2-(bis(2-hydroxyethyl)amino)ethyl)-1H-pyrrole-3-carboxamide], the IC50 in assay [1] (setting [3]) worked out at 50 nM; with HT29, 210 nM; in the assay on SKBR-3, 20 nM; in the assay with MCF-7 it was 680 nM; in the assay with BT474, 70 nM.

In the case of `COc1c(C)cnc(CN2C(=O)/C(=C\c3cc(C(=O)NCCN4CCC(O)CC4)c[nH]3)c3c(Cl)nc(N)nc32)c1C` [III-33, (Z)-5-((2-Amino-4-chloro-7-((4-methoxy-3,5-dimethylpyridin-2-yl)methyl)-6-oxo-6,7-dihydro-5H-pyrrolo[2,3-d]pyrimidin-5-ylidene)methyl)-N-(2-(4-hydroxypiperidin-1-yl)ethyl)-1H-pyrrole-3-carboxamide], the IC50 in assay [1] (setting [3]) came to 40 nM; with HT29, 20 nM; in the assay on SKBR-3, 0.6 nM; with MCF-7 it was 110 nM; with BT474, 3 nM.

On to `COc1c(C)cnc(CN2C(=O)/C(=C\c3cc(C(=O)NCCCN4CCOCC4)c[nH]3)c3c(Cl)nc(N)nc32)c1C` [III-34, (Z)-5-((2-Amino-4-chloro-7-((4-methoxy-3,5-dimethylpyridin-2-yl)methyl)-6-oxo-6,7-dihydro-5H-pyrrolo[2,3-d]pyrimidin-5-ylidene)methyl)-N-(3-morpholinopropyl)-1H-pyrrole-3-carboxamide], for which the IC50 in assay [1] (setting [3]) worked out at 20 nM; in the assay on HT29, 20 nM; in the assay on SKBR-3 it was 10 nM; in the assay with MCF-7 it was 170 nM; in the assay with BT474, 40 nM.

With `COc1c(C)cnc(CN2C(=O)/C(=C\c3cc(C(C)(C)C)n[nH]3)c3c(Cl)nc(N)nc32)c1C` [III-52, (Z)-2-Amino-5-((3-tert-butyl-1H-pyrazol-5-yl)methylene)-4-chloro-7-((4-methoxy-3,5-dimethylpyridin-2-yl)methyl)-5H-pyrrolo[2,3-d]pyrimidin-6(7H)-one], the IC50 was found to be 60 nM in assay [1] (setting [3]); 240 nM in the assay with HT29; 140 nM in the assay on SKBR-3; 190 nM in the assay with MCF-7; 410 nM in the assay on BT474.

`CCN(CC)CCNC(=O)c1c[nH]c(/C=C2\C(=O)N(Cc3cc(C)n(C)n3)c3nc(N)nc(Cl)c32)c1` [III-59, (Z)-5-((2-Amino-4-chloro-7-((1,5-dimethyl-1H-pyrazol-3-yl)methyl)-6-oxo-6,7-dihydro-5H-pyrrolo[2,3-d]pyrimidin-5-ylidene)methyl)-N-(2-(diethylamino)ethyl)-1H-pyrrole-3-carboxamide]: the IC50 in assay [1] (setting [3]) came to 100 nM; in the assay with HT29 it was 320 nM; with SKBR-3, 60 nM; in the assay on MCF-7, 1700 nM; in the assay on BT474, 160 nM.

Regarding `COc1c(C)cnc(CN2C(=O)/C(=C\c3nc(NC(=O)C4CCOCC4)c[nH]3)c3c(Cl)nc(N)nc32)c1C` [III-75, (Z)-N-(2-((2-Amino-4-chloro-7-((4-methoxy-3,5-dimethylpyridin-2-yl)methyl)-6-oxo-6,7-dihydro-5H-pyrrolo[2,3-d]pyrimidin-5-ylidene)methyl)-1H-imidazol-4-yl)tetrahydro-2H-pyran-4-carboxamide], the IC50 in assay [1] (setting [3]) was 90 nM; in the assay on HT29, 50 nM; in the assay on SKBR-3, 7 nM; with MCF-7, 160 nM; in the assay with BT474, 60 nM.

As to `COc1c(C)cnc(CN2C(=O)/C(=C\c3cc(C(=O)CN4CCC(C(F)(F)F)CC4)c[nH]3)c3c(Cl)nc(N)nc32)c1C` [III-94], the IC50 in assay [1] (setting [3]) amounted to 80 nM; with HT29, 350 nM; with SKBR-3 it was 90 nM; in the assay on MCF-7, 390 nM; in the assay on BT474, 790 nM.

Regarding `CCN(CC)CCNC(=O)c1c(C)[nH]c(/C=C2\C(=O)N(Cc3ncc(C)c(OC)c3C)c3nc(N)nc(Cl)c32)c1C` [III-102, (Z)-5-((2-Amino-4-chloro-7-((4-methoxy-3,5-dimethylpyridin-2-yl)methyl)-6-oxo-6,7-dihydro-5H-pyrrolo[2,3-d]pyrimidin-5-ylidene)methyl)-N-(2-(diethylamino)ethyl)-2,4-dimethyl-1H-pyrrole-3-carboxamide], the IC50 was 40 nM in assay [1] (setting [3]); 30 nM with HT29; 10 nM in the assay on SKBR-3; 21300 nM in the assay on MCF-7; 70 nM in the assay with BT474.

The values above are taken from patent US20110124634A1, “BIOACTIVE COMPOUNDS FOR TREATMENT OF CANCER AND NEURODEGENERATIVE DISEASES” (PONIARD PHARMACEUTICALS, INC., priority 2008, published 2011).
